# ± gives the standard deviation of the averaged measurements.
# Experiments:
# [1] = target: MAST4 (UniProt O15021); assay: pIC50, kinobeads binding competition; conditions: cell material: Jurkat lysate
# [2] = target: T1, PIP4K2A (UniProt P48426); assay: pIC50, kinobeads binding competition; conditions: cell material: Jurkat lysate
# T1 sequence (whole entry): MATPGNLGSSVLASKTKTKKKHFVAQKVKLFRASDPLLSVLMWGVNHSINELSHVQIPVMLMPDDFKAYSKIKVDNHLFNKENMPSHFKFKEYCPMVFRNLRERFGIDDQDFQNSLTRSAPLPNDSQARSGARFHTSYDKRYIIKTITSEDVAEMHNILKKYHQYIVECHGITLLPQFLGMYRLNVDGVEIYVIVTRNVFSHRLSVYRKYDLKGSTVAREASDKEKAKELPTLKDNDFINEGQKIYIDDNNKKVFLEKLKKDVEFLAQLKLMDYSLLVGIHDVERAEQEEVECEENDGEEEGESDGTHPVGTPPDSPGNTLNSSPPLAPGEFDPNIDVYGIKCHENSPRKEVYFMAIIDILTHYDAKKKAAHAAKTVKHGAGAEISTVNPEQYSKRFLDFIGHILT
# [3] = target: MAPKAPK3 (UniProt Q16644); assay: pIC50, kinobeads binding competition; conditions: cell material: Jurkat lysate
# Sequence of MAPKAPK3 (Q16644 whole entry, looked up): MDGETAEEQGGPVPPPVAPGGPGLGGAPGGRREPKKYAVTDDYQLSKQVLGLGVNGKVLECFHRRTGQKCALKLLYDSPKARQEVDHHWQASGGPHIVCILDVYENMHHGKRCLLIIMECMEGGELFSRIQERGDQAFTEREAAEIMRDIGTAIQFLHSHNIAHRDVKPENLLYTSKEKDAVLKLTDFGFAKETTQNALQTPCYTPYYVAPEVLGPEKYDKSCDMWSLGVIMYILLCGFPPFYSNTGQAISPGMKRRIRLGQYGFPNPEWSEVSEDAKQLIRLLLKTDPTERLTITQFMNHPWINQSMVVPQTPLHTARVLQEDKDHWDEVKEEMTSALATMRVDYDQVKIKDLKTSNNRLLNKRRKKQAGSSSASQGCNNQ
# [4] = target: TRRAP (UniProt Q9Y4A5); assay: pIC50, kinobeads binding competition; conditions: cell material: Jurkat lysate
# [5] = target: PIK3R4 (UniProt Q99570); assay: pIC50, kinobeads binding competition; conditions: cell material: Jurkat lysate
# Sequence of PIK3R4 (Q99570 whole entry): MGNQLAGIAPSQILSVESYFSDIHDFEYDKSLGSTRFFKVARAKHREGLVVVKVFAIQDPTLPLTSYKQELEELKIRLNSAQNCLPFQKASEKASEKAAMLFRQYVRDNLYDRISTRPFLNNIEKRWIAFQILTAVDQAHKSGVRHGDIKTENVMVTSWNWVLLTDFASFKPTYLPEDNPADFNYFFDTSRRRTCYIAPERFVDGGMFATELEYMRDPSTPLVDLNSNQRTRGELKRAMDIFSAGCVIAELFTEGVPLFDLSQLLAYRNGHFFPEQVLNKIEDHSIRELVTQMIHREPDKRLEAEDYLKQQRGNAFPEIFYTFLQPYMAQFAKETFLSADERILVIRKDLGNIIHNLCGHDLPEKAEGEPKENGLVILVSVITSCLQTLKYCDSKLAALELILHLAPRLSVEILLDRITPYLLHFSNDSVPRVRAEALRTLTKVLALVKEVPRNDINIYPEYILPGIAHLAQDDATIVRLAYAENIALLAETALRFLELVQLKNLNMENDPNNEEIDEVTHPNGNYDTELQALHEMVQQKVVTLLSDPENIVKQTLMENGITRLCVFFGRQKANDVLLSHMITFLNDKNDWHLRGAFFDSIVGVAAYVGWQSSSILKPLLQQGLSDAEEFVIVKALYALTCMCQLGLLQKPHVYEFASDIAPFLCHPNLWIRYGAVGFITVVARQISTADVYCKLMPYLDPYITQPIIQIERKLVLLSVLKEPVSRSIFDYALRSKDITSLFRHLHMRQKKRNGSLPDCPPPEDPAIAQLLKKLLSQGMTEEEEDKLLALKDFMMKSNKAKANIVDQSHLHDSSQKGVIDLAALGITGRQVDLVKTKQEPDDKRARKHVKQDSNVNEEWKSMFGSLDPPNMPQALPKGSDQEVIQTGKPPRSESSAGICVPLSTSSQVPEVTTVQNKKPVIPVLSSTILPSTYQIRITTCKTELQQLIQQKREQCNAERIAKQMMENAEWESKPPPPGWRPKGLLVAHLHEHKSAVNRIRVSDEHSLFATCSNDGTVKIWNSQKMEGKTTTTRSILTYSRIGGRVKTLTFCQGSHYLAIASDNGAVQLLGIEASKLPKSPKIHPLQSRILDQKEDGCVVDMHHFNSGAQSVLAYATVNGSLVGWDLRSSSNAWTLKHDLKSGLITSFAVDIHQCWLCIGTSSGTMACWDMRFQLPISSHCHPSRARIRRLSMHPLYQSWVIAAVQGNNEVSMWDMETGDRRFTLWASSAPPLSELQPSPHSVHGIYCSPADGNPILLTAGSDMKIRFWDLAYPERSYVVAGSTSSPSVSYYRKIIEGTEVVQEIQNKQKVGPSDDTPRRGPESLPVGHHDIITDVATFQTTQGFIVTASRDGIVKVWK
# [6] = target: MAST3 (UniProt O60307); assay: pIC50, kinobeads binding competition; conditions: cell material: Jurkat lysate
# Sequence of MAST3 (O60307 whole entry): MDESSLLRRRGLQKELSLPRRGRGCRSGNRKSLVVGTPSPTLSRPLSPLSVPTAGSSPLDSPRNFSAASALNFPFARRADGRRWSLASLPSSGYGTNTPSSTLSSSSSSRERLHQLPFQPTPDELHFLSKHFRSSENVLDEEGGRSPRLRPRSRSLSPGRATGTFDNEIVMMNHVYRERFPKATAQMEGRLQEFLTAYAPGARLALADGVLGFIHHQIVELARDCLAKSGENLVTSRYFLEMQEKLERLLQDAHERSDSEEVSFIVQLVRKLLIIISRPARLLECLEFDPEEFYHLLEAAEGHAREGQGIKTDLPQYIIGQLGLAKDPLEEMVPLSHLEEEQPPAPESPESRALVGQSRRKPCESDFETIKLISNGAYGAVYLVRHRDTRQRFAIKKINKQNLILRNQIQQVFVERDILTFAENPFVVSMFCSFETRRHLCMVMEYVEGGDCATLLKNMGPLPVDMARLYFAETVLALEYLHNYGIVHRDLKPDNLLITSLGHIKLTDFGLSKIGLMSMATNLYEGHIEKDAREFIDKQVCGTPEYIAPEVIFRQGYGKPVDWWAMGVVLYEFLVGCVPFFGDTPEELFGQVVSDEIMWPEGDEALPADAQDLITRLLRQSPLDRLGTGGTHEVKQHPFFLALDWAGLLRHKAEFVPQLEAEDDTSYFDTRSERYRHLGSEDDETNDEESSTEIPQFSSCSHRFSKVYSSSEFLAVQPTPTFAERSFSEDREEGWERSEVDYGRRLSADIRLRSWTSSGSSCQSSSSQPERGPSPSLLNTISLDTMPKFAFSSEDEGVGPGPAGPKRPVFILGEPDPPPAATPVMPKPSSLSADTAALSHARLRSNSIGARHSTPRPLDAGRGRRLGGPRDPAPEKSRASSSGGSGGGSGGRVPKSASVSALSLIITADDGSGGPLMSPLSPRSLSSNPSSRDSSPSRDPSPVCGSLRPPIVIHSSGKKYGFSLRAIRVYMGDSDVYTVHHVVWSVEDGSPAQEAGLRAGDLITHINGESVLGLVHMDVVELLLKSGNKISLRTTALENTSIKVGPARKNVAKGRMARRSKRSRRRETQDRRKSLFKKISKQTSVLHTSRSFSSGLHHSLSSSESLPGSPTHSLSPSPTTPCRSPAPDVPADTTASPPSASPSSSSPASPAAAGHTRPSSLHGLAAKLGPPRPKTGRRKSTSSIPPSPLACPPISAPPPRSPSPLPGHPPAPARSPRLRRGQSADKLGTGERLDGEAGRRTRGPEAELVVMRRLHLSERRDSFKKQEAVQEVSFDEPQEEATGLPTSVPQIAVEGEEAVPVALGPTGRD
# [7] = target: PDIK1L (UniProt Q8N165); assay: pIC50, kinobeads binding competition; conditions: cell material: Jurkat lysate
# Sequence of PDIK1L (Q8N165 whole entry): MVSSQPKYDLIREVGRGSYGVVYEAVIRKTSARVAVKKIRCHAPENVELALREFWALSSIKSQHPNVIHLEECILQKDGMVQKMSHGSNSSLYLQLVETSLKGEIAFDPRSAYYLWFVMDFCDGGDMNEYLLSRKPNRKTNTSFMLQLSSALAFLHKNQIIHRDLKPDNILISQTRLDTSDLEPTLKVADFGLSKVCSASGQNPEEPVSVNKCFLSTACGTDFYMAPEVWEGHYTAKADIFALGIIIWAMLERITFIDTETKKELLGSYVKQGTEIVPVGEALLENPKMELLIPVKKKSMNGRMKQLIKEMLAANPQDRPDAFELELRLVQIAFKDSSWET
# [8] = target: T2, PBK (UniProt Q96KB5); assay: pIC50, kinobeads binding competition; conditions: cell material: Jurkat lysate
# T2 sequence (whole entry): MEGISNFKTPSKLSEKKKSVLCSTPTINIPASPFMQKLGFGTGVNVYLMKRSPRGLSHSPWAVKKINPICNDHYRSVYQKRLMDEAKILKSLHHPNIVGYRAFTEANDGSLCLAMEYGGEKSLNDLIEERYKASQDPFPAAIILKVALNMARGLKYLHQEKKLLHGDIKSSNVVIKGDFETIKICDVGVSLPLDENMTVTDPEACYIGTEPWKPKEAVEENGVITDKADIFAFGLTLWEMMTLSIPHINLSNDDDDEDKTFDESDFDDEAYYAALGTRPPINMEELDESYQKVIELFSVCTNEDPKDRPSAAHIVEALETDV
# [9] = target: T3, MASTL (UniProt Q96GX5); assay: pIC50, kinobeads binding competition; conditions: cell material: Jurkat lysate
# T3 sequence (whole entry): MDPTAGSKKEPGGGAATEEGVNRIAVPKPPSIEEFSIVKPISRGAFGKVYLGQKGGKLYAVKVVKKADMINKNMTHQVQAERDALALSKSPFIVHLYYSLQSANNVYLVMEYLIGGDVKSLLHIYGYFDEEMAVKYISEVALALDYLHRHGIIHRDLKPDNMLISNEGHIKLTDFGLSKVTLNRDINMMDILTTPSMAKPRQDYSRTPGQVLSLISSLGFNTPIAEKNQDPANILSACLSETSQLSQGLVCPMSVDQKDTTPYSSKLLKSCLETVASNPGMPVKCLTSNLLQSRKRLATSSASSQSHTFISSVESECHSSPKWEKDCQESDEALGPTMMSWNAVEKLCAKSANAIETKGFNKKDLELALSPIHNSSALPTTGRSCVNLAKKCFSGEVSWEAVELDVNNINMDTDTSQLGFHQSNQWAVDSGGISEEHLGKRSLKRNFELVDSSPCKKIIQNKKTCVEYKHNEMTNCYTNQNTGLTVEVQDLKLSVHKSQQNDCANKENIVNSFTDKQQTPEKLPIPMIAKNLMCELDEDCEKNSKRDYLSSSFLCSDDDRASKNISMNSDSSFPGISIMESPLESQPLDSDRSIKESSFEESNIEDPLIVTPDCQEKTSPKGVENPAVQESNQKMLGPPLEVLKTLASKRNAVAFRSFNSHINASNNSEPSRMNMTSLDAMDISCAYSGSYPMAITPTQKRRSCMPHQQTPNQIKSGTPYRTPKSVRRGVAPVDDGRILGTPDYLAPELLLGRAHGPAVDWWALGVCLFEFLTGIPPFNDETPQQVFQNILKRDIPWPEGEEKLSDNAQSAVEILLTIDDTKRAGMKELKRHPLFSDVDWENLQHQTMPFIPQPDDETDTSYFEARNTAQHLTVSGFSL
# [10] = target: CDK10 (UniProt Q15131); assay: pIC50, kinobeads binding competition; conditions: cell material: Jurkat lysate
# Sequence of CDK10 (Q15131 whole entry): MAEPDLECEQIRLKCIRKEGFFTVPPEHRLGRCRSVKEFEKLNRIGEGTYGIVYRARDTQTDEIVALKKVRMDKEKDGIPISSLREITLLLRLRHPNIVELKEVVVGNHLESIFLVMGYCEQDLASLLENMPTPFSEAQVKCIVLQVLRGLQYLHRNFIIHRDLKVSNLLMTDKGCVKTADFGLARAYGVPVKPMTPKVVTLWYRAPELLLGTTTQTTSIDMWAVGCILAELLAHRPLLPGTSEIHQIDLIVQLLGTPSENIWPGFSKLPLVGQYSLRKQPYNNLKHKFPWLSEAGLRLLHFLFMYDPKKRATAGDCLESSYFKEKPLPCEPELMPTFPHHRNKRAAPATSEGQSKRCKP
# [11] = target: UniProt Q5TCX8; assay: pIC50, kinobeads binding competition; conditions: cell material: Jurkat lysate
# Sequence of UniProt Q5TCX8 (Q5TCX8 whole entry): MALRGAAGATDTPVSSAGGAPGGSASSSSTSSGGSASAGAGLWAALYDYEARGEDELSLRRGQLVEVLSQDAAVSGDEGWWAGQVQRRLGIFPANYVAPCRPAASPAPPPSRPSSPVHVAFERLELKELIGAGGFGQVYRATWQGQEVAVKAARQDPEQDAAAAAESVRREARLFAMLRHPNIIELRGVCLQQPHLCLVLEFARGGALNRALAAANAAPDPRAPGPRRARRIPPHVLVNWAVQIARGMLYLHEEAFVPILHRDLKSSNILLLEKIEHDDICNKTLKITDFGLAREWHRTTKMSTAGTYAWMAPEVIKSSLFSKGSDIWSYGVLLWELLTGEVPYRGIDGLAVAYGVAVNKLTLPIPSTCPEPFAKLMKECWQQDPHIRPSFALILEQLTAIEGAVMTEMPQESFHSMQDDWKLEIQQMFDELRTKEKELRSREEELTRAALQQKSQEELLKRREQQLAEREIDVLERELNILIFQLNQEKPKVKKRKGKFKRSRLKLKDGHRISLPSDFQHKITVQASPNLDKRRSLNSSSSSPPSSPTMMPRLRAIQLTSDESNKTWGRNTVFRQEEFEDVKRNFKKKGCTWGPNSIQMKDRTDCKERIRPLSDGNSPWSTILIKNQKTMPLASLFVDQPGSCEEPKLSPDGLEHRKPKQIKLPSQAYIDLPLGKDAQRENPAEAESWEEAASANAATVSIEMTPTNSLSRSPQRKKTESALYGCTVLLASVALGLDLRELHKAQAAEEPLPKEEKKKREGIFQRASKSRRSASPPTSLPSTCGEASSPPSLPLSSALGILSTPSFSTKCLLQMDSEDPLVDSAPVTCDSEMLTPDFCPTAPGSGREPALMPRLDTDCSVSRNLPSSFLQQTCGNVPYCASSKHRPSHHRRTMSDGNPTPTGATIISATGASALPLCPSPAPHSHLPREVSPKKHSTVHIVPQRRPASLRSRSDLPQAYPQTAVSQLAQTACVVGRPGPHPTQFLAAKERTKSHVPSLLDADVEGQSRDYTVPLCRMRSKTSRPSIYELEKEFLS
# [12] = target: T4, KSR1 (UniProt Q8IVT5); assay: pIC50, kinobeads binding competition; conditions: cell material: Jurkat lysate
# T4 sequence (whole entry): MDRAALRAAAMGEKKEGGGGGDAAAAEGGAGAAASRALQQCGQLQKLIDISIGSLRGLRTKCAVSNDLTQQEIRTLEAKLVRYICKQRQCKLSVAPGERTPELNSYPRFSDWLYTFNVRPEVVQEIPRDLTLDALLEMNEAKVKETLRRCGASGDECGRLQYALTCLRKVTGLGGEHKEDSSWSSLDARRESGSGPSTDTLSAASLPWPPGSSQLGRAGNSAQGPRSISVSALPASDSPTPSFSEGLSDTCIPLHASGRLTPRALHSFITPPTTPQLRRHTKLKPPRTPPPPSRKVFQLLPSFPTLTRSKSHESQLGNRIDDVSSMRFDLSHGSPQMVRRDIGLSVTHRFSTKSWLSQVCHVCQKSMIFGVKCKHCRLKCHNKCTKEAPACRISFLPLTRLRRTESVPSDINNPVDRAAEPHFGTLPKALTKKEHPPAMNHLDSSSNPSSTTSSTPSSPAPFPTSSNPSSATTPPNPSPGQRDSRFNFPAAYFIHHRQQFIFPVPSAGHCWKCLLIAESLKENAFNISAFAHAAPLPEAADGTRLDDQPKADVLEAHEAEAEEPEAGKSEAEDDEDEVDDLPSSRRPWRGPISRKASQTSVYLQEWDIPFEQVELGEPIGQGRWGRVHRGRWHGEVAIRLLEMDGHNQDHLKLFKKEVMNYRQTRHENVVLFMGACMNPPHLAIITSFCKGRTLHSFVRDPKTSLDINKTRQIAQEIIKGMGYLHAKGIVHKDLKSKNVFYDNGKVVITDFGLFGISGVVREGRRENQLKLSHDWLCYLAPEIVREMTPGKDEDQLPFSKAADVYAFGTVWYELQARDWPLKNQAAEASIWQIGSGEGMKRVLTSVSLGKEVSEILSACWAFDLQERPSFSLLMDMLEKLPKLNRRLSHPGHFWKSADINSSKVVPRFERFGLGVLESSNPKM
# [13] = target: SPR (UniProt P35270); assay: pIC50, competition of probe 3 labelling in live cells; conditions: cell material: Jurkat cells
# Sequence of SPR (P35270 whole entry, looked up): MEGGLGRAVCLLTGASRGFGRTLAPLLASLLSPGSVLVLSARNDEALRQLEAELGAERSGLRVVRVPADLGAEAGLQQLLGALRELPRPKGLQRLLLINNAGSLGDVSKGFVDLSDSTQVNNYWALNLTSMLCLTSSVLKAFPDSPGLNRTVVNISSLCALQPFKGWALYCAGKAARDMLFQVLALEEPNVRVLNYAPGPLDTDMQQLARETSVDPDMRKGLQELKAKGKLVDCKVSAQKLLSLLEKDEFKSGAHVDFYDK
SMILES,pIC50 [1],pIC50 [2],pIC50 [3],pIC50 [4],pIC50 [5],pIC50 [6],pIC50 [7],pIC50 [8],pIC50 [9],pIC50 [10],pIC50 [11],pIC50 [12],pIC50 [13]
Cc1nc(Nc2ncc(C(=O)Nc3c(C)cccc3Cl)s2)cc(N2CCN(CCO)CC2)n1 [dasatinib],< 4.52,< 4.52,6.74,< 4.52,< 4.52,< 4.52,4.89 ± 0.099,< 4.52,< 4.52,< 4.52,< 4.52,4.72,
Cc1c(C(=O)N2CCN(CC(F)(F)F)CC2)cnn1-c1nn2cccc2c(=O)[nH]1 [QM385],,,,,,,,,,,,,7.61 ± 0.34

# Reference: the supplement of paper PMC12076712
